# According to US20250230193A1, “CYCLIC COMPOUND HAVING SELECTIVE KRAS INHIBITORY EFFECT ON HRAS AND NRAS” (CHUGAI SEIYAKU KABUSHIKI KAISHA, priority 2022, published 2025):
# *1 amine or outer side, *2 acyl side, *3 side chain or, on linkers, in order; H or OH if unused. Where a SMILES comes first, the peptide text is derived from it. Bridges are numbered along the chain shown (N, C = ends). [ ]: non-standard residue; d: D form. The star is where a group is joined. hPhe(3-Cl-4-CF3) = N[C@@H](CCc1ccc(C(F)(F)F)c(Cl)c1)C(=O)O; NPrPhe(4-CF3) = CCCN[C@@H](Cc1ccc(C(F)(F)F)cc1)C(=O)O; X49 = Cc1ccc(C[C@@H](C(=O)[*:2])N(CC2CC2)[*:1])cc1; NMeGly(cPent) = CN[C@H](C(=O)O)C1CCCC1; Gly(cPent) = N[C@H](C(=O)O)C1CCCC1; NMeD = CN[C@@H](CC(=O)O)C(=O)O; NMeL = CN[C@@H](CC(C)C)C(=O)O; Morpholide = C1CN(*)CCO1; NMeA = CN[C@@H](C)C(=O)O; Ac5c = NC1(C(=O)O)CCCC1; Aze = O=C(O)[C@@H]1CCN1; Sar = CNCC(=O)O
# Columns and labels:
# [1] = biological target: GDP-bound NRAS wild-type protein (Homo sapiens, UniProt P01111); assay: Binding to NRAS by surface plasmon resonance (SPR), Single Cycle Kinetics
# Sequence of GDP-bound NRAS wild-type protein (P01111 whole entry): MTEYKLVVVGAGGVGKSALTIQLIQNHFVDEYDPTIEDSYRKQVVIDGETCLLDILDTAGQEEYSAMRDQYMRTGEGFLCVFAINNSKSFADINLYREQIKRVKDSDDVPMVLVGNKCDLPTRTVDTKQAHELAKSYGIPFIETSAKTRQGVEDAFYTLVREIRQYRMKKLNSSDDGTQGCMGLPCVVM
# [2] = biological target: GDP-bound HRAS wild-type protein (Homo sapiens, UniProt P01112); assay: Binding to HRAS by surface plasmon resonance (SPR), Single Cycle Kinetics
# Sequence of GDP-bound HRAS wild-type protein (P01112 whole entry): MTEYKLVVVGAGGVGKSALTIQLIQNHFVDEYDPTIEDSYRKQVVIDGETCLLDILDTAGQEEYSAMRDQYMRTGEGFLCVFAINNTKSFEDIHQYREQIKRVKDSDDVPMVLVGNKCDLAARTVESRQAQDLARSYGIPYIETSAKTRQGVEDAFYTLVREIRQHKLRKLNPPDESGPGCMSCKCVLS
# [3] = SPR, GDP-bound wild-type proteins
smiles,measurement,setting,value
CCO[C@@H]1C[C@H]2C(=O)NC3(CCC3)C(=O)N(C)[C@@H](C3CCCC3)C(=O)N(C)[C@H](C(=O)N(C)CCOC)CC(=O)N(C)[C@@H](CC(C)C)C(=O)N[C@@H]([C@@H](C)CC)C(=O)N(C)CC(=O)N(C)[C@H]3C/C=C\CCN(C3=O)[C@@H](Cc3ccc(C(F)(F)F)cc3)C(=O)N(C)CC(=O)N[C@@H](CCc3ccc4sccc4c3)C(=O)N2C1 [PP1325],NRAS/KRAS (ratio of KD value for GDP-bound NRAS wild-type protein to KD value for KRAS),"[1]; SPR, KD ratio class",A (a compound having 10 or more and less than 20 is denoted as A)
same,HRAS/KRAS (ratio of KD value for GDP-bound HRAS wild-type protein to KD value for KRAS),"[2]; SPR, KD ratio class",A (a compound having 10 or more and less than 20 is denoted as A)
CC[C@H](C)[C@@H]1NC(=O)[C@H](CC(C)C)N(C)C(=O)C[C@@H](C(=O)N2CCOCC2)N(C)C(=O)[C@H](C2CCCC2)N(C)C(=O)C2(CCCC2)NC(=O)[C@@H]2CCCN2C(=O)[C@H](CCc2ccc(C(F)(F)F)c(Cl)c2)NC(=O)CN(C)C(=O)[C@H](Cc2ccc(C)cc2)N(CC2CC2)C(=O)CN(C)C(=O)CN(C)C1=O [PP0064] ([NMeL]I[Sar][Sar][X49][Sar][hPhe(3-Cl-4-CF3)]P[Ac5c][NMeGly(cPent)][NMeD]-Morpholide; lactam N-11),NRAS/KRAS (ratio of KD for GDP-bound NRAS wild-type to KD for KRAS),[1]; SPR,C (A compound having a KD ratio of 0.1 or more and less than 3 is denoted as C)
same,HRAS/KRAS (ratio of KD for GDP-bound HRAS wild-type to KD for KRAS),[2]; SPR,C (A compound having a KD ratio of 0.1 or more and less than 3 is denoted as C)
CCC[C@H]1C(=O)N[C@@H]([C@@H](C)CC)C(=O)N(C)CC(=O)N(C)[C@H]2C/C=C\CCN(C2=O)[C@@H](Cc2ccc(C)cc2)C(=O)N(C)CC(=O)N[C@@H](CCc2ccc(Cl)c(OC)c2)C(=O)N2C[C@H](OCC)C[C@H]2C(=O)NC2(CC(C)(C)C2)C(=O)N(C)[C@@H](C2CCCC2)C(=O)N(C)[C@H](C(=O)N(C)C)CC(=O)N1C [PP2790],NRAS/KRAS (ratio of KD value with respect to GDP-bound NRAS wild-type protein to KD value with respect to KRAS),[1]; class symbols,A (a compound having 10 or more and less than 20 is denoted as A)
same,HRAS/KRAS (ratio of KD value with respect to GDP-bound HRAS wild-type protein to KD value with respect to KRAS),[2]; class symbols,A (a compound having 10 or more and less than 20 is denoted as A)
CCCN1C(=O)[C@@H]2CCN2C(=O)[C@H](C)N(C)C(=O)[C@H](C2CCCC2)NC(=O)[C@H](CC(C)C)N(C)C(=O)C[C@@H](C(=O)N2CCOCC2)N(C)C(=O)[C@H](C2CCCC2)N(C)C(=O)C2(CCCC2)NC(=O)[C@@H]2CCCN2C(=O)[C@H](CCc2ccc(C(F)(F)F)c(Cl)c2)NC(=O)CN(C)C(=O)[C@@H]1Cc1ccc(C(F)(F)F)cc1 [PP0272] ([NMeL][Gly(cPent)][NMeA][Aze][NPrPhe(4-CF3)][Sar][hPhe(3-Cl-4-CF3)]P[Ac5c][NMeGly(cPent)][NMeD]-Morpholide; lactam N-11),NRAS/KRAS (ratio of KD for GDP-bound NRAS wild-type to KD for KRAS),[1]; SPR,C (A compound having a KD ratio of 0.1 or more and less than 3 is denoted as C)
same,HRAS/KRAS (ratio of KD for GDP-bound HRAS wild-type to KD for KRAS),[2]; SPR,B (a compound having 3 or more and less than 10 is denoted as B)
CCO[C@@H]1C[C@H]2C(=O)NC3(CC(C)(C)C3)C(=O)N(C)[C@@H](C(CC)CC)C(=O)N(C)[C@H](C(=O)N(C)C)CC(=O)N(C)[C@@H](COC)C(=O)N[C@@H]([C@@H](C)CC)C(=O)N(C)CC(=O)N(C)[C@H]3C/C=C\CCN(C3=O)[C@@H](Cc3ccc(C(F)(F)F)cc3)C(=O)N(C)CC(=O)N[C@@H](CCc3cc(F)c(C(F)(F)F)c(F)c3)C(=O)N2C1 [PP2121],NRAS/KRAS (ratio of KD value with respect to NRAS to KD value with respect to KRAS),"[1]; SPR, GDP-bound NRAS wild-type vs GDP-bound KRAS wild-type",AA (a compound having 20 or more is denoted as AA)
same,HRAS/KRAS (ratio of KD value with respect to HRAS to KD value with respect to KRAS),"[2]; SPR, GDP-bound HRAS wild-type vs GDP-bound KRAS wild-type",A (a compound having 10 or more and less than 20 is denoted as A)
"CCC[C@H]1C(=O)N[C@@H]([C@@H](C)CC)C(=O)N(C2CC2)CC(=O)N(C)[C@H]2C/C=C\CCN(C2=O)[C@@H](Cc2ccc(C)cc2)C(=O)N(C)CC(=O)N[C@@H](CCc2cc(F)c(C(F)(F)F)c(F)c2)C(=O)N2C[C@H](OCC)C[C@H]2C(=O)N(C)C2(CCC2)C(=O)N(C)[C@@H](C2CCCC2)C(=O)N(C)[C@H](C(=O)N2CCCC2)CC(=O)N1C [PP3113, (2S,8S,12R,14S,20S,23S,27S,30S,36S,38Z)-20-cyclopentyl-32-cyclopropyl-8-[2-[3,5-difluoro-4-(trifluoromethyl)phenyl]ethyl]-12-ethoxy-4,16,19,22,26,35-hexamethyl-30-[(1S)-1-methylpropyl]-27-propyl-2-(p-tolylmethyl)-23-(pyrrolidine-1-carbonyl)spiro[1,4,7,10,16,19,22,26,29,32,35-undecazatricyclo[34.5.1.0^10,14]dotetracont-38-ene-17,1′-cyclobutane]-3,6,9,15,18,21,25,28,31,34,42-undecone]",NRAS/KRAS (ratio of KD value with respect to GDP-bound NRAS wild-type protein to KD value with respect to KRAS),[1]; [3],A (a compound having 10 or more and less than 20 is denoted as A)
same,HRAS/KRAS (ratio of KD value with respect to GDP-bound HRAS wild-type protein to KD value with respect to KRAS),[2]; [3],A (a compound having 10 or more and less than 20 is denoted as A)
